From the supplement of paper PMC10627819

Tests used:
S. aureus DSM 20231 [1] = assay: fitness (endpoint OD595 vs no drug) (fraction); higher = more growth
How it was run: (§1)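 In 384-well plates at 37 °C, cultures began at OD595 0.01 in 30 µl, with 55 µl used for S. pneumoniae. OD595 readings every 30 min for 14 h were corrected by the first reading. Fitness divides the stationary-phase transition optical density by the robust mean of no-drug control wells. The result is capped at 1.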

S. aureus Newman [2] = assay: as above
How it was run: as §1

S. pneumoniae D39V [3] = assay: as above
How it was run: as §1

B. subtilis 168 = assay: Bliss interaction score (quartile over a dose matrix) (fitness difference); higher = more antagonism (negative = synergy)
How it was run: (§2)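 Fitness was derived from optical density at entry into stationary phase, divided by the robust mean of the no-drug wells on the same plate. That reading was taken as OD595, and the ratio was capped at 1. Single-drug fitness was inferred from the combination data. The Bliss score, observed fitness minus the expected product of single-drug fitness, was summarised as quartiles over technical, biological and donor/recipient replicates.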

S. aureus DSM 20231 [4] = assay: as above
How it was run: as §2

S. aureus Newman [5] = assay: as above
How it was run: as §2

S. pneumoniae D39V [6] = assay: as above
How it was run: as §2

[7] = first compound 0.0625 µg/mL, partner 0.078 µg/mL
[8] = first compound 0.0625 µg/mL, partner 0.156 µg/mL
[9] = first compound 0.0625 µg/mL, partner 0.312 µg/mL
[10] = first compound 0.125 µg/mL, partner 0.078 µg/mL
[11] = first compound 0.125 µg/mL, partner 0.156 µg/mL
[12] = first compound 0.125 µg/mL, partner 0.312 µg/mL
[13] = first compound 0.25 µg/mL, partner 0.078 µg/mL
[14] = first compound 0.25 µg/mL, partner 0.156 µg/mL
[15] = first compound 0.25 µg/mL, partner 0.312 µg/mL
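Throughout, for Bliss interaction score (quartile over a dose matrix): first quartile when negative (synergy) and third quartile when positive (antagonism).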

CC1(C)S[C@@H]2[C@H](NC(=O)[C@H](N)c3ccc(O)cc3)C(=O)N2[C@H]1C(=O)O [Amoxicillin] + CO/N=C(\C(=O)N[C@@H]1C(=O)N2C(C(=O)O)=C(COC(C)=O)CS[C@H]12)c1csc(N)n1 [Cefotaxime]
fitness (S. aureus DSM 20231 [1]; first compound 0.0625 µg/mL, partner 0.039 µg/mL): 0.465
fitness (S. aureus DSM 20231 [1]; [7]): 0.47
fitness (S. aureus DSM 20231 [1]; [8]): 0.464
fitness (S. aureus DSM 20231 [1]; [9]): 0.456
fitness (S. aureus DSM 20231 [1]; first compound 0.125 µg/mL, partner 0.039 µg/mL): 0.283
fitness (S. aureus DSM 20231 [1]; [10]): 0.403
fitness (S. aureus DSM 20231 [1]; [11]): 0.221
fitness (S. aureus DSM 20231 [1]; [12]): 0.0746
fitness (S. aureus DSM 20231 [1]; first compound 0.25 µg/mL, partner 0.039 µg/mL): 0.128
fitness (S. aureus DSM 20231 [1]; [13]): 0.103
fitness (S. aureus DSM 20231 [1]; [14]): 0.0332
fitness (S. aureus DSM 20231 [1]; [15]): 0.0409
fitness (S. aureus DSM 20231 [1]; first compound 0.5 µg/mL, partner 0.039 µg/mL, one replicate): 0.0334
fitness (S. aureus DSM 20231 [1]; first compound 0.5 µg/mL, partner 0.078 µg/mL, one replicate): 0.0321
fitness (S. aureus DSM 20231 [1]; first compound 0.5 µg/mL, partner 0.156 µg/mL, one replicate): 0.0325
fitness (S. aureus DSM 20231 [1]; first compound 0.5 µg/mL, partner 0.312 µg/mL, one replicate): 0.0506
fitness (S. aureus Newman [2]; first compound 0.0625 µg/mL, partner 0.039 µg/mL, one replicate): 0.709
fitness (S. aureus Newman [2]; [7]): 0.728
fitness (S. aureus Newman [2]; [8]): 0.575
fitness (S. aureus Newman [2]; [9]): 0.327
fitness (S. aureus Newman [2]; first compound 0.0625 µg/mL, partner 0.625 µg/mL): 0.191
fitness (S. aureus Newman [2]; first compound 0.0625 µg/mL, partner 1.25 µg/mL): 0.0345
fitness (S. aureus Newman [2]; first compound 0.0625 µg/mL, partner 2.5 µg/mL): 0.0349
fitness (S. aureus Newman [2]; first compound 0.125 µg/mL, partner 0.039 µg/mL, one replicate): 0.736
fitness (S. aureus Newman [2]; [10]): 0.711
fitness (S. aureus Newman [2]; [11]): 0.551
fitness (S. aureus Newman [2]; [12]): 0.156
fitness (S. aureus Newman [2]; first compound 0.125 µg/mL, partner 0.625 µg/mL): 0.0751
fitness (S. aureus Newman [2]; first compound 0.125 µg/mL, partner 1.25 µg/mL): 0.0453
fitness (S. aureus Newman [2]; first compound 0.125 µg/mL, partner 2.5 µg/mL): 0.0311
fitness (S. aureus Newman [2]; first compound 0.25 µg/mL, partner 0.039 µg/mL, one replicate): 0.749
fitness (S. aureus Newman [2]; [13]): 0.626
fitness (S. aureus Newman [2]; [14]): 0.51
fitness (S. aureus Newman [2]; [15]): 0.159
fitness (S. aureus Newman [2]; first compound 0.25 µg/mL, partner 0.625 µg/mL): 0.13
fitness (S. aureus Newman [2]; first compound 0.25 µg/mL, partner 1.25 µg/mL): 0.0376
fitness (S. aureus Newman [2]; first compound 0.25 µg/mL, partner 2.5 µg/mL): 0.0239
fitness (S. pneumoniae D39V [3]; first compound 0.0008 µg/mL, partner 0.0018 µg/mL): 0.993
fitness (S. pneumoniae D39V [3]; first compound 0.0008 µg/mL, partner 0.0035 µg/mL): 0.986
fitness (S. pneumoniae D39V [3]; first compound 0.0008 µg/mL, partner 0.007 µg/mL): 0.882
fitness (S. pneumoniae D39V [3]; first compound 0.0015 µg/mL, partner 0.0018 µg/mL): 0.998
fitness (S. pneumoniae D39V [3]; first compound 0.0015 µg/mL, partner 0.0035 µg/mL): 0.967
fitness (S. pneumoniae D39V [3]; first compound 0.0015 µg/mL, partner 0.007 µg/mL): 0.882
fitness (S. pneumoniae D39V [3]; first compound 0.003 µg/mL, partner 0.0018 µg/mL): 0.977
fitness (S. pneumoniae D39V [3]; first compound 0.003 µg/mL, partner 0.0035 µg/mL): 0.889
fitness (S. pneumoniae D39V [3]; first compound 0.003 µg/mL, partner 0.007 µg/mL): 0.762
fitness (S. pneumoniae D39V [3]; first compound 0.006 µg/mL, partner 0.0018 µg/mL, one replicate): 0.457
fitness (S. pneumoniae D39V [3]; first compound 0.006 µg/mL, partner 0.0035 µg/mL, one replicate): 0.344
fitness (S. pneumoniae D39V [3]; first compound 0.006 µg/mL, partner 0.007 µg/mL, one replicate): 0.176
Bliss interaction score (B. subtilis 168): 0.0789
Bliss interaction score (S. aureus DSM 20231 [4]): -0.14
Bliss interaction score (S. aureus Newman [5]): -0.0401
Bliss interaction score (S. pneumoniae D39V [6]): -0.0441
